Holding throughout (assay): growth of human tumour cells (NCI), 48 h
The test system of assay [1] is HOP-62 NSCLC.
The test system of assay [2] is NCI/ADR-RES ovarian.
In assay [3] the test system is SK-MEL-2 melanoma.
In assay [4] the test system is RPMI-8226 leukemia.
Assay [5] deals with LOX IMVI melanoma.
For assay [6], the system named is SK-MEL-28 melanoma.
Assay [7] has as its system SF-295 CNS.
Assay [8] relates to SN12C renal.
Assay [9] concerns HCT-15 colon.
For assay [10], the system named is OVCAR-4 ovarian.

SMILES strings stand for the structures.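 Five compound concentrations were applied to cells in 96-well plates for 48 hours; endpoints were derived by simple linear interpolation of the resulting dose-response curve. GI50 is the concentration that inhibits growth by half. TGI: concentration producing complete growth inhibition.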 Bounds are passed on as bounds.

In the case of `Cc1ccc(-c2nc(N3CCCNCC3)c3oc(-c4ccc(C)cc4)nc3n2)cc1`, the GI50 in [1] is 8.78 µM; in assay [2], 1.96 µM; in assay [3] it was 21.3 µM; in assay [4], 1.89 µM; in assay [5] it was 1.86 µM; in assay [6], 1.93 µM. For the same compound, the GI50 is 1.86 µM in assay [7], 1.61 µM in assay [8], 1.49 µM in [9] and 2.11 µM in assay [10]. Moreover, the TGI turned out to be 24.3 µM in [1]; 3.74 µM in assay [2]; 45.4 µM in assay [3]; 4.22 µM in [4]; 3.46 µM in [5]; 3.51 µM in assay [6]. Besides, the TGI is 3.54 µM in assay [7], 3.06 µM in [8], 2.96 µM in assay [9] and 4.67 µM in [10].

Consider `O=C1c2nc3n(c2C(=O)c2c1nc1n2CCC1)CCC3`, for which the GI50 in assay [1] was 5.19 µM; in [3], 4.39 µM; in assay [4], 9.83 µM; in assay [5] it was 3.75 µM; in assay [7] it was 6.72 µM; in assay [8], 9.48 µM. Also, the GI50 in assay [10] is 5.45 µM. The TGI in [1] is 15.9 µM; in assay [3], 13.5 µM; in assay [4], greater than 100 µM; in [5] it was 13.4 µM; in assay [6] it was 31.3 µM; in assay [7] it was 17.9 µM. Moreover, the TGI in [8] is 14.5 µM; in [9], 19.2 µM; in assay [10] it was 14.9 µM.

For the compound `COc1ccc(Nc2c3ccccc3nc3[nH]c4ccccc4c23)cc1`, the GI50 in assay [1] was 8.71 µM; in assay [2] it was 18.9 µM; in [3], greater than 50 µM; in [4] it was 2.33 µM; in assay [5], 6.44 µM; in [6], 18.5 µM. The GI50 is 8.9 µM in [7], 18.5 µM in [8] and 8.33 µM in assay [9]. Further, the TGI is 23.2 µM in [1]; greater than 50 µM in assay [2]; greater than 50 µM in assay [3]; 33.4 µM in [4]; 29.5 µM in assay [5]; greater than 50 µM in assay [6]. Further, the TGI in assay [7], in assay [8] and in assay [9] was greater than 50 µM throughout.

Take `O=C(Nc1ccn(CCI)c(=O)n1)c1ccccc1`: the TGI in assay [1], in assay [3], in assay [4], in assay [5], in assay [6] and in [7] was greater than 100 µM each time. Besides, the TGI in assay [8], in [9] and in [10] was greater than 100 µM in each case.

For the compound `C=C1[C@@H]([C@@]2(C)C=CC(=O)C(C)(C)[C@@H]2CC(=O)OC)CC[C@@]2(C)C(c3ccoc3)OC(=O)[C@H]3O[C@]132` (some centres undefined), the TGI in assay [2], in [3], in [5], in assay [6], in assay [7] and in assay [8] was greater than 100 µM throughout. Moreover, the TGI in assay [9] and in assay [10] was greater than 100 µM each time.

Regarding `CCCCCCC(/C=N/O)C(C)(O)CCC` (centres undefined), the TGI in [1], in assay [3], in assay [4], in [5], in [6] and in assay [7] was greater than 100 µM in each case. For the same compound, the TGI in assay [8], in [9] and in [10] was greater than 100 µM each time.

For `O=C(Nc1ccc(Cl)c(Cl)c1)OCCN1c2ccccc2Sc2ccccc21`, the TGI in [1], in [2], in assay [4], in assay [5], in [6] and in assay [7] was greater than 10 µM throughout. The TGI in [8], in assay [9] and in [10] was greater than 10 µM throughout.

In the case of `O=C(O)C1=C(C(=O)Nc2ccc(NC(=O)C3=C(C(=O)O)C4C=CC3C4)cc2)C2C=CC1C2`, the TGI in [1], in assay [3], in assay [4], in [5], in [6] and in [7] was greater than 100 µM in each case. Besides, the TGI in [8], in assay [9] and in assay [10] was greater than 100 µM in each case.

For `COC(=O)C1=CC2OC1(C)CCC2=O` (centres undefined), the TGI in [1], in [3], in assay [4], in assay [5], in assay [6] and in [7] was greater than 100 µM throughout. Besides, the TGI in assay [8], in assay [9] and in assay [10] was greater than 100 µM each time.

As for `O=C1OC(OCC#CCOC2OC(=O)C(Cl)=C2Cl)C(Cl)=C1Cl` (centres undefined), the TGI in assay [1] was found to be 26.7 µM; in assay [2], 75.3 µM; in assay [3], 32.2 µM; in assay [4], 11.9 µM; in assay [5], 11.1 µM; in assay [6], 30.1 µM. In addition, the values for the TGI in assay [7], in [8] and in assay [9] were 60.4 µM, 32.5 µM and 27.3 µM, respectively.

Turning to `COc1ccc(Nc2cc(C)nc(N3CCN(c4ccnc5cc(Cl)ccc45)CC3)n2)cc1`, the GI50 in [1] was 3.89 µM; in [2], 2.48 µM; in assay [4], 2.18 µM; in assay [5], 2.39 µM; in [7], 1.28 µM; in assay [8], 2.8 µM. The GI50 in [9] was 2.06 µM; in assay [10], 1.76 µM. The TGI in assay [1] is greater than 100 µM; in [2], 8.43 µM; in assay [4] it was 8.91 µM; in [5], 5.96 µM; in [7], 7.68 µM; in assay [8], greater than 100 µM. The TGI in assay [9] and in [10] was greater than 100 µM in each case.

Regarding `COc1ccc2c(c1OC)C(=O)c1cnccc1C2=O`, the TGI in assay [1], in [3], in assay [4], in assay [5], in assay [6] and in assay [7] was greater than 100 µM throughout. Further, the TGI in [8], in [9] and in assay [10] was greater than 100 µM in each case.

`COC(=O)CCC(=O)NC1C2CC3CC(C2)CC1C3` (centres undefined): the TGI in [1], in assay [3], in assay [4], in assay [5], in assay [6] and in assay [7] was greater than 100 µM each time. In addition, the TGI in assay [8], in assay [9] and in assay [10] was greater than 100 µM in each case.

On to `O=S(=O)(C/C(=N\O)c1ccccc1)c1ccccc1`, for which the TGI in assay [1], in [3], in assay [4], in assay [5], in assay [6] and in assay [7] was greater than 100 µM throughout. The TGI in [8], in [9] and in assay [10] was greater than 100 µM throughout.

Consider `C=CS(=O)(=O)CCN1CC1`, for which the TGI in assay [1], in assay [2], in assay [4], in assay [5], in [6] and in [7] was greater than 10 µM throughout. For the same compound, the TGI in [8], in [9] and in [10] was greater than 10 µM throughout.

With `CCC(=O)N/N=C(\C=C\c1cccc(O)c1)c1sc(Nc2ccc(C)cc2[N+](=O)[O-])nc1C`, the TGI in assay [1], in [3], in assay [4], in assay [5], in assay [6] and in [7] was greater than 100 µM each time. In addition, the TGI in [8], in [9] and in assay [10] was greater than 100 µM throughout.

`COc1ccc2nc(NC(=O)c3cccnc3Nc3cc(OC)c(OC)c(OC)c3)sc2c1`: the GI50 was 6.33 µM in [1]; 8.97 µM in assay [2]; 9.94 µM in assay [4]; 15.7 µM in assay [5]; 7.88 µM in assay [6]; 8.34 µM in [7]. The results for the GI50 in assay [8], in assay [9] and in [10] were 11.7 µM, 11.2 µM and 15 µM, respectively. For the same compound, the TGI in [1] was 22.3 µM; in [2] it was 25.7 µM; in assay [4], 34.9 µM; in assay [5], 42.2 µM; in assay [6], 21.3 µM; in assay [7], 27.1 µM. Moreover, the TGI came out at 27.5 µM in assay [8], 85.6 µM in [9] and 32.6 µM in assay [10].

As for `CCC(Oc1ccc(OC)c2ccccc(=O)c12)C(=O)O` (centres undefined), the TGI in [1], in assay [3], in assay [4], in [5], in assay [6] and in assay [7] was greater than 100 µM in each case. The TGI in [8], in assay [9] and in [10] was greater than 100 µM throughout.

Take `COC1=C2CC(C)CC(OC)C(O)C(C)/C=C(\C)C(OC(N)=O)C(OC)/C=C\C=C(/C)C(=O)NC(=C(/C=N/N3CCCCC3)C1=O)C2=O` (centres undefined): the TGI in assay [1] came out at 44.5 µM; in assay [3], 32.5 µM; in [4] it was 42 µM; in assay [5], 22.3 µM; in assay [6] it was 37 µM; in [7] it was 30.1 µM. The TGI stood at 15.5 µM in assay [8], 28.6 µM in assay [9] and 19.3 µM in [10].

For the compound `COc1cc(Cl)cc(-c2nn(-c3cccc(NC(=O)Nc4ccc(Cl)c(C(F)(F)F)c4)c3)cc2-c2ccncc2)c1`, the GI50 in [1] was 2.12 µM; in [2], 1.77 µM; in assay [3], 1.79 µM; in assay [4], 0.402 µM; in assay [6], 2.41 µM; in assay [7], 0.465 µM. In addition, the GI50 in [8] is 1.56 µM; in [9] it was 0.493 µM; in assay [10], 1.8 µM. Besides, the TGI in assay [1] came out at 6.32 µM; in assay [2], 11.6 µM; in assay [3], 4.21 µM; in [4], 2.07 µM; in [6], 8.41 µM; in assay [7], 2 µM. The TGI was determined as 8.21 µM in assay [8], 2.4 µM in assay [9] and 28.8 µM in assay [10].

For `O=C1CC(c2ccc(Cl)cc2)Oc2ccccc21` (centres undefined), the TGI in assay [1] was 56 µM; in assay [2], 50.6 µM; in assay [3], 37.8 µM; in [4] it was 9.12 µM; in assay [5] it was 93.6 µM; in [6], greater than 100 µM. Moreover, the TGI in assay [7] was greater than 100 µM; in assay [9] it was 48 µM; in [10], greater than 100 µM.

Turning to `c1ccc(CNc2nc(Nc3ccccc3)nc3ccccc23)cc1`, the GI50 in [1] was 2.3 µM; in [2], 1.99 µM; in assay [4], 1.41 µM; in [5], 1.88 µM; in [6], 1.7 µM; in assay [7], 1.73 µM. For the same compound, the figures for the GI50 in [8] and in assay [10] were 1.73 µM and 2.05 µM, respectively. The TGI in assay [1] came out at 5.17 µM; in assay [2], 5 µM; in assay [4], 4.42 µM; in assay [5] it was 3.4 µM; in [6], 3.24 µM; in assay [7], 3.77 µM. Besides, the results for the TGI in assay [8] and in assay [10] were 3.7 µM and 8.04 µM, respectively.

As to `C=CCCCc1ccc(C(O)CCCCCCCCCCCC)o1` (centres undefined), the GI50 is 16 µM in [1]; 17.4 µM in [2]; 19.5 µM in assay [3]; 19.2 µM in [4]; 16.9 µM in assay [5]; 20.6 µM in assay [6]. Further, the GI50 in assay [7] is 18.2 µM; in assay [8] it was 17.2 µM; in assay [9] it was 15.5 µM. For the same compound, the TGI in [1] is 30.2 µM; in assay [2], 34.2 µM; in assay [3], 42.9 µM; in assay [4], 44.7 µM; in [5], 31.1 µM; in [6], 50.6 µM. In addition, the TGI in assay [7] is 46.6 µM; in assay [8] it was 31.4 µM; in assay [9], 30.3 µM.

The values above are taken from PubChem BioAssay (NCI).
